Activity calls are given as the source filed them.
Key:
[1] = target: Transitional endoplasmic reticulum ATPase (Homo sapiens, UniProt P55072, C522A); experiment: C522A mutant p97 ATPase inhibitors, dose response, counter-screen for p97 inhibitor project, biochemical, luminescence (AID 1544)
[2] = target: Transitional endoplasmic reticulum ATPase (Homo sapiens, UniProt P55072); experiment: p97 ATPase inhibitors, dose response, biochemical (AID 1534)
[3] = target: G2/mitotic-specific cyclin-B1 (Homo sapiens, UniProt P14635); experiment: Counterscreen assay for inhibitors of Wee1 degradation: dose response cell-based assay to identify inhibitors of cyclin B degradation. [Related pubchem assays: 1410, 1321 ]; assay type: functional
Wee1-like protein kinase = Wee1-like protein kinase (Homo sapiens, UniProt P30291); experiment: Dose Response Cell-based Assay for Inhibitors of Wee1 Degradation. [Related pubchem assays: 1410, 1321 ]; assay type: functional
[4] = microbe, parasite or virus in culture; assay type: functional; conditions: Mycobacterium tuberculosis
[5] = growth suppression of PTEN-null colon cells, dose response, cell-based, HCT116 PTEN knockout (AID 1047); assay type: functional;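 further: HCT116 colon tumor cells with PTEN knocked out; cells exposed to compound for 60 hours before readout; potency for loss of cell viability measured by luminescence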
[6] = growth suppression of beta-catenin-knockout colon cells, dose response, cell-based, HCT116, human colon tumor (AID 1045); assay type: functional;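 further: HCT116 colon tumor cells with beta catenin knocked out; cells exposed to compound for 60 hours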
[7] = Luminescence Cell-Based Dose Retest to Confirm Inhibitors of Cancer Stem Cells. [Related pubchem assays (depositor defined):AID2717, AID2721]; assay type: functional; conditions: Homo sapiens
[8] = target: Neurotensin receptor type 1 (Homo sapiens, UniProt P30989); assay type: functional;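 further: Image-based confirmatory dose-response assay measuring agonist activity at NTR1; NTR1-expressing U2OS osteosarcoma cells imaged for beta-arrestin GFP spot formation; agonist potency where compounds increase beta-arrestin recruitment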
Chain of Neurotensin receptor type 1 (P30989 whole entry): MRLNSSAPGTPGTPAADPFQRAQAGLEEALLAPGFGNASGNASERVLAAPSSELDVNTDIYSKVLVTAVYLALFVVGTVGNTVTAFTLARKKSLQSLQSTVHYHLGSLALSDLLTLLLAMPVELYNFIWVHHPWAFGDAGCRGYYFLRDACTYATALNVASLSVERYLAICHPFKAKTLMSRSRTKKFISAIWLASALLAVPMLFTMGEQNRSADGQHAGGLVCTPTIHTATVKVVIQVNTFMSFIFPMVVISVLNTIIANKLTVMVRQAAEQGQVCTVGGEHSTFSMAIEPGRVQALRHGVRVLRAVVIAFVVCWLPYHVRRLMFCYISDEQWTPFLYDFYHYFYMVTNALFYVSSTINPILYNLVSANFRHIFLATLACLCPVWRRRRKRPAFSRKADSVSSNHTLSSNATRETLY

[9] = target: T1, Eukaryotic translation initiation factor 2-alpha kinase 3 (Homo sapiens, UniProt Q9NZJ5); experiment: Dose response cell-based high-throughput screening assay to measure PERK inhibition. [Related pubchem assays: 1416 ]; assay type: functional
T1 sequence (Q9NZJ5 whole entry): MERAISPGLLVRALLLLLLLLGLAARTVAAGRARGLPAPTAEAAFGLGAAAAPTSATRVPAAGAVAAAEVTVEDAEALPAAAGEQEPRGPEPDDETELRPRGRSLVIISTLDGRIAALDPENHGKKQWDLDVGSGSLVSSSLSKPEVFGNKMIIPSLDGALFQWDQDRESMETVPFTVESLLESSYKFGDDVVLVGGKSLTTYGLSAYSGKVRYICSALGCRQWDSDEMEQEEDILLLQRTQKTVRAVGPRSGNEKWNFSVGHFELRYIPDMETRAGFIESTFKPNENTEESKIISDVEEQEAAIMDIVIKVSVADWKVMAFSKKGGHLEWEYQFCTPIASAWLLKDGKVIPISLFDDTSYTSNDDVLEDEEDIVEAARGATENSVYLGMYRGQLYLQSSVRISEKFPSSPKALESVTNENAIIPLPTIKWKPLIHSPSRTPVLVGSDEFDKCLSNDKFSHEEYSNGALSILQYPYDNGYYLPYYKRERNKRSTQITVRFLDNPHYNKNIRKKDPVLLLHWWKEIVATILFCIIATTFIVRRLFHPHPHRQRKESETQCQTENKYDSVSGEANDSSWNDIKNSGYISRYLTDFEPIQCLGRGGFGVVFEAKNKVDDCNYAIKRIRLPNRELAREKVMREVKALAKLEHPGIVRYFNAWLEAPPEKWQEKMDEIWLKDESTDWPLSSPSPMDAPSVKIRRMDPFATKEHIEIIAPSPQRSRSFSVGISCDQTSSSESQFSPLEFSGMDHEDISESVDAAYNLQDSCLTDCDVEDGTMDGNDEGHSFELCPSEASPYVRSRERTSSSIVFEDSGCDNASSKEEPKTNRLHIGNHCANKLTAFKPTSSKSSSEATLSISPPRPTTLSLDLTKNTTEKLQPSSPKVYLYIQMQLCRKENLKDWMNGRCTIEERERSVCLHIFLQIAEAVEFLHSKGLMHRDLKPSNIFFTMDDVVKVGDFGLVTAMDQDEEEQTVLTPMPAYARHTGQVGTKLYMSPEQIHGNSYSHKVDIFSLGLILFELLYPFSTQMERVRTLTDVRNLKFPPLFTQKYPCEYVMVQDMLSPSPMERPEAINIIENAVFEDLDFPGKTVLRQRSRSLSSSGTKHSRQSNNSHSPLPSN

[10] = target: T1, Eukaryotic translation initiation factor 2-alpha kinase 3; experiment: Counterscreen assay for PERK inhibitors: Dose response cell-based high throughput screening assay to measure inhibition of PERK at 6 hours. [Related pubchem assays: 1522, 1416 ]; assay type: functional
Staphylococcus aureus = experiment: Inhibitors of Bacterial Quorum Sensing Structure Activity Relationship (SAR) Analysis: Dose Response Assay. [Related pubchem assays: 700, 527 ]; assay type: functional, organism-based
[11] = target: T2, RNA-binding protein pos-1 (Caenorhabditis elegans, UniProt G5EF15); experiment: inhibitors of POS-1/mex-3 RNA binding, dose response, biochemical, fluorescence polarization (AID 1964);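 further: purified POS-1 fused to maltose binding protein made in E. coli; potency of compounds blocking POS-1 binding to fluorescent RNA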
T2 sequence (G5EF15 whole entry): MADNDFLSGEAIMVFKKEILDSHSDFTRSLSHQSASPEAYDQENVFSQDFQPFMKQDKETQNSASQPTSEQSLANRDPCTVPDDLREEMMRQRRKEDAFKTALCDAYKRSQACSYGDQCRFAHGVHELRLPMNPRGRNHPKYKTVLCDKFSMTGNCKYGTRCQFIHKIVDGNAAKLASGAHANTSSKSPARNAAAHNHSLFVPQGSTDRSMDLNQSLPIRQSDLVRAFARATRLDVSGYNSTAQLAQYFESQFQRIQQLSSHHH

[12] = target: T3, Zinc finger protein mex-5 (Caenorhabditis elegans, UniProt Q9XUB2); experiment: MEX-5/TCR-2 RNA interaction inhibitors, dose response, biochemical, C. elegans, fluorescence polarization (AID 1960)
T3 sequence (Q9XUB2 whole entry): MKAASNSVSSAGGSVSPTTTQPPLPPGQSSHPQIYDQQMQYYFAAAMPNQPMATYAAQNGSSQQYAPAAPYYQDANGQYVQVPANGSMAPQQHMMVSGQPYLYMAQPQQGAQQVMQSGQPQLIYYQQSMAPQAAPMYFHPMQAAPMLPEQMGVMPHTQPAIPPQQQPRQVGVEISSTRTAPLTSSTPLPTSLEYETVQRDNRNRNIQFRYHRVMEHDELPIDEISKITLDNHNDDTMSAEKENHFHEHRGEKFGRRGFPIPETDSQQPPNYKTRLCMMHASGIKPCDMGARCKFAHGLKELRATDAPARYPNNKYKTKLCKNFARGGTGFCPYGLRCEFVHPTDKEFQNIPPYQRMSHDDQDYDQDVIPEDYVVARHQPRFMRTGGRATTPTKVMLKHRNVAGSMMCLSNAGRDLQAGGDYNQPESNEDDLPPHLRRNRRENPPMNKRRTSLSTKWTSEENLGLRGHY

[13] = target: Induced myeloid leukemia cell differentiation protein Mcl-1 (Homo sapiens, UniProt Q07820); assay type: functional
[14] = target: DNA dC->dU-editing enzyme APOBEC-3A (Homo sapiens, UniProt P31941); experiment: APOBEC3A DNA deaminase inhibitors, dose response, biochemical (AID 504722); assay type: functional
[15] = target: 1-acylglycerol-3-phosphate O-acyltransferase ABHD5/Perilipin-5 (Homo sapiens, UniProt Q00G26+Q8WTS1); experiment: Luminescence-based biochemical high throughput dose response assay for inhibitors of the interaction of the lipase co-activator protein, abhydrolase domain containing 5 (ABHD5) with perilipin-5 (MLDP; PLIN5) (2K validation set). [Related pubchem assays (depositor defined):AID493035, AID493241]
Chain of 1-acylglycerol-3-phosphate O-acyltransferase ABHD5/Perilipin-5 (Q00G26 whole entry, the tested form may be a part): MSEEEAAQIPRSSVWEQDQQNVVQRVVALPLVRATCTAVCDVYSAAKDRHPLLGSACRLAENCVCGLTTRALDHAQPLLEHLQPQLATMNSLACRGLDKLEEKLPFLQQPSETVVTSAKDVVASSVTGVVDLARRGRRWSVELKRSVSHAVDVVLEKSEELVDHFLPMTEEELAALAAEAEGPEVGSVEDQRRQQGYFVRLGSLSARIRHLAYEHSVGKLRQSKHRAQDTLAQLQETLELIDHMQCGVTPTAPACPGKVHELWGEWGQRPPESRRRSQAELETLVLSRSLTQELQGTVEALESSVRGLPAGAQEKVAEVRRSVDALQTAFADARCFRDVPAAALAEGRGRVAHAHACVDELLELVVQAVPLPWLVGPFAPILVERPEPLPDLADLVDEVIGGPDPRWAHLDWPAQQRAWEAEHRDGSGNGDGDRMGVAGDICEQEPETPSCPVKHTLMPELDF
Chain of 1-acylglycerol-3-phosphate O-acyltransferase ABHD5/Perilipin-5 (Q8WTS1 whole entry, the tested form may be a part): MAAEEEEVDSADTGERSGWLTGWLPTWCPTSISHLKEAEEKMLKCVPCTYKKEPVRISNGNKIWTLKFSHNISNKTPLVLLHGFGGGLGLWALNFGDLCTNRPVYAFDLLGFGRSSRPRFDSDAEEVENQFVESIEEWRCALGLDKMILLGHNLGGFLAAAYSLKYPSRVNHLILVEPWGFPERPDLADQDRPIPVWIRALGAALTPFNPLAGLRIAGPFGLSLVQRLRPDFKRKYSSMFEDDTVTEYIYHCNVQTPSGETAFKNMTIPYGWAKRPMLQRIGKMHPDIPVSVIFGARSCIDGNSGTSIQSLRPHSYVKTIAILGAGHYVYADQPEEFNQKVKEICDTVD

Perilipin-1/ABHD5 = Perilipin-1/ABHD5 (Homo sapiens, UniProt O60240+Q8WTS1); experiment: Luminescence-based biochemical high throughput dose response assay for inhibitors of the interaction of the lipase co-activator protein, abhydrolase domain containing 5 (ABHD5) with perilipin-1 (PLIN1) (2K validation set). [Related pubchem assays (depositor defined):AID493027, AID493057]
Beta-galactosidase = Beta-galactosidase (Escherichia coli, UniProt Q8VNN2); experiment: beta-galactosidase enzyme inhibitors and activators, dose response, artefact control for CCR6 antagonist project, biochemical, E. coli enzyme, set 3 (AID 504712); assay type: functional
[16] = target: DNA dC->dU-editing enzyme APOBEC-3G (Homo sapiens, UniProt Q9HC16); experiment: Dose Response confirmation of small molecule APOBEC3G DNA Deaminase Inhibitors via a fluorescence-based single-stranded DNA deaminase assay. [Related pubchem assays (depositor defined):AID493012, AID493028]; assay type: functional
Hexokinase HKDC1 = Hexokinase HKDC1 (Homo sapiens, UniProt Q2TB90); experiment: HKDC1 hexokinase inhibitors, dose response, biochemical, W721R variant (AID 504729); assay type: functional
Chain of Hexokinase HKDC1 (Q2TB90 whole entry): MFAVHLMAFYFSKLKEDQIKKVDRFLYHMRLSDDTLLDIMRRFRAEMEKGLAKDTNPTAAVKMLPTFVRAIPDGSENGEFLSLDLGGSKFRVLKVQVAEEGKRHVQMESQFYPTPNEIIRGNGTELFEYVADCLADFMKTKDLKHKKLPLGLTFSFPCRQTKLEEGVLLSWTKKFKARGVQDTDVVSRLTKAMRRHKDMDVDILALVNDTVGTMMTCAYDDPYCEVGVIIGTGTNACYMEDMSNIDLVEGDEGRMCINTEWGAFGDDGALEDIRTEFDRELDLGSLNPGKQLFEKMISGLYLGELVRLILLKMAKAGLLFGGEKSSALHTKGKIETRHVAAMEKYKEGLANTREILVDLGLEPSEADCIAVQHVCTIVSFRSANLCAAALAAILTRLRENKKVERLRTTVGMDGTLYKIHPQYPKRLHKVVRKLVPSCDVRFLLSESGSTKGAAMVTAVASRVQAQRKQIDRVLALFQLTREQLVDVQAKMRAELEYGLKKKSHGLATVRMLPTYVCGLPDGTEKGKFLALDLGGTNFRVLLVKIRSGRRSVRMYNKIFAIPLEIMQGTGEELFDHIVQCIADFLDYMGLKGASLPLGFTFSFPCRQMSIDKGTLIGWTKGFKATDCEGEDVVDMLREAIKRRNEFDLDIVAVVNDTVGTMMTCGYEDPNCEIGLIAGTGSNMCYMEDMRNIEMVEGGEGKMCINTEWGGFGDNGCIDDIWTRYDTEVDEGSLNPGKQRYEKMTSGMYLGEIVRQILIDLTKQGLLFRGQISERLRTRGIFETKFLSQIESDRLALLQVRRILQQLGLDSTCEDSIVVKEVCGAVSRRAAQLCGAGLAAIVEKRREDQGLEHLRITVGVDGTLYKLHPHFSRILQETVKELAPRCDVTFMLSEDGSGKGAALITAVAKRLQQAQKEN

[17] = target: Glyceraldehyde-3-phosphate dehydrogenase (Homo sapiens, UniProt P04406)
[18] = target: Heat shock cognate 71 kDa protein (Homo sapiens, UniProt P11142); experiment: In Vitro Hsc70 Dose Response Fluorescence Polarization Assay. [Related pubchem assays: 1072 ]
Chain of Heat shock cognate 71 kDa protein (P11142 whole entry): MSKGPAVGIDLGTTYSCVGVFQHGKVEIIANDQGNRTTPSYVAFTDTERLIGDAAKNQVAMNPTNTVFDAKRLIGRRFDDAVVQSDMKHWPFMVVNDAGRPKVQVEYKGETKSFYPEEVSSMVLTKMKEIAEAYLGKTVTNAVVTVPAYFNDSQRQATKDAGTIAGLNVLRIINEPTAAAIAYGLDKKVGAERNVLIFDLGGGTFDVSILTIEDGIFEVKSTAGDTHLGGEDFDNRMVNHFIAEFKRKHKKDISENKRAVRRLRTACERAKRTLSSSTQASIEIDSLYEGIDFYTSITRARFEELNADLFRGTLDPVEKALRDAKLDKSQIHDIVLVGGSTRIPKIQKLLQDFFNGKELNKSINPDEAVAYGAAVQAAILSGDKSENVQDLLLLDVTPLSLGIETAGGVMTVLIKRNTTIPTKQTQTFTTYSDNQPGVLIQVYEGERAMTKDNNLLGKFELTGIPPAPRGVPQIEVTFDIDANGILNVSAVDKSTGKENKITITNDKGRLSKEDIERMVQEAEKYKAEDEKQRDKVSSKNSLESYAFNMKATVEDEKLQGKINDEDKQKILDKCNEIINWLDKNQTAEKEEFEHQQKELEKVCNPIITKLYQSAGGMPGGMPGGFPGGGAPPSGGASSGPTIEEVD

[19] = target: Heat shock 70 kDa protein 1A (Homo sapiens, UniProt P0DMV8); experiment: Hsp70 inhibitors, SAR follow-up, biochemical, fluorescence polarization (AID 1072)
[20] = target: Eukaryotic translation initiation factor 4H (Homo sapiens, UniProt Q15056); experiment: human eIF4H binding inhibitors, primary screen, translation initiation inhibitor project, biochemical, uHTS, fluorescence polarization (AID 2012)
[21] = target: Polyadenylate-binding protein 1 (Homo sapiens, UniProt P11940); experiment: PABP poly(A) RNA binding inhibitors, primary screen, biochemical, fluorescence polarization, uHTS (AID 2014)
Chain of Polyadenylate-binding protein 1 (P11940 whole entry): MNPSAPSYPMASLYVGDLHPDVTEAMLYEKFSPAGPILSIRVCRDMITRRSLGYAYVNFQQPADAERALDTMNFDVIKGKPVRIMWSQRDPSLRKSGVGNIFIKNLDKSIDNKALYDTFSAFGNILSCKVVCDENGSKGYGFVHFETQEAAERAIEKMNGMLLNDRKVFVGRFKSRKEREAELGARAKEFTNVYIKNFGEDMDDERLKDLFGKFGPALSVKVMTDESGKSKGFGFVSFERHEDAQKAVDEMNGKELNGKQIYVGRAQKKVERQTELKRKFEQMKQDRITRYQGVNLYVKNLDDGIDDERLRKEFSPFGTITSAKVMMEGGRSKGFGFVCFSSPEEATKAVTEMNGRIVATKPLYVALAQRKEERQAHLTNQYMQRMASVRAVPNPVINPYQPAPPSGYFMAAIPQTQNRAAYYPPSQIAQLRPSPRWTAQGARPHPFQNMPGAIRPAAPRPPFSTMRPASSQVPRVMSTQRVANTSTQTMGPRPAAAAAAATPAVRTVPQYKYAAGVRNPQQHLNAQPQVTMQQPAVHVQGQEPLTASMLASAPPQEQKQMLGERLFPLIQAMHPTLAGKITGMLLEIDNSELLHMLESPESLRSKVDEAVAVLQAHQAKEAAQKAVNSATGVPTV

[22] = inhibitors of firefly luciferase expression or activity, dose response, H4 neuroglioma cells, luminescence (AID 1990); assay type: functional, cell-based
[23] = luciferase reporter signal reduction – luminescence, H4-C neuroglioblastoma cells, dose response (AID 2458); assay type: functional, cell-based;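 further: H4 neuroglioblastoma cells stably carrying a luciferase reporter gene fusion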
cells = assay type: functional, cell-based
[24] = inhibitors of SNCA 5'UTR-driven reporter translation, confirmation, H4 neuroglioma cells, luminescence (AID 1988); assay type: functional, cell-based
[25] = inhibitors of SNCA 5'UTR-driven translation, confirmation, luminescence, H4 neuroglioblastoma cells, dose confirmation (AID 2454); assay type: functional, cell-based;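 further: H4 neuroglioblastoma cells carrying an alpha-synuclein 5'UTR luciferase reporter; potency for inhibition of the luciferase signal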
[26] = target: Photoreceptor-specific nuclear receptor (Homo sapiens, UniProt Q9Y5X4); assay type: functional;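 further: potency for compounds that break the NR2E3 corepressor complex and count as activators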
[27] = target: T4, E3 ubiquitin-protein ligase XIAP (Homo sapiens, UniProt P98170); experiment: Counter Screen using XIAP-Bir3 for Chemical Antagonists of Bir1/2 domains of IAP-family anti-apoptotic proteins. [Related pubchem assays (depositor defined):AID1018, AID1449, AID1514, AID1638, AID1749, AID1750, AID488957, AID488963]
T4 sequence (P98170 whole entry): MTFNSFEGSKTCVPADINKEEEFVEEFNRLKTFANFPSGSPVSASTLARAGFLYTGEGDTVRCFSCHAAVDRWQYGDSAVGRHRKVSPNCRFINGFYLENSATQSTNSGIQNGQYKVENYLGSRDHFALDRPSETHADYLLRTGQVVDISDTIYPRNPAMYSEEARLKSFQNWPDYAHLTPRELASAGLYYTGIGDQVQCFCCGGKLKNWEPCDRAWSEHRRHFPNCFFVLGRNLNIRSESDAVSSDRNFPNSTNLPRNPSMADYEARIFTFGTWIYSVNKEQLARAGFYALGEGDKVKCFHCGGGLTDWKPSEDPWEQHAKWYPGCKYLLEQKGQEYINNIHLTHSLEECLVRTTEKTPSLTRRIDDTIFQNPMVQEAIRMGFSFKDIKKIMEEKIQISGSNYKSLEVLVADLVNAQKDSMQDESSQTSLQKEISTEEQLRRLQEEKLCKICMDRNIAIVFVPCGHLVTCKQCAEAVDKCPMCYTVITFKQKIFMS

[28] = target: T4, E3 ubiquitin-protein ligase XIAP; experiment: XIAP antagonists, biochemical, IAP family, fluorescence polarization (AID 1018); assay type: functional
[29] = target: Peroxisome proliferator-activated receptor gamma/Nuclear receptor corepressor 2 (Homo sapiens, UniProt P37231+Q9Y618); assay type: functional
Chaperone protein dnaK = Chaperone protein dnaK (Escherichia coli, UniProt C3TRK2); experiment: DnaK beta-domain binding affinity, SAR follow-up, orthogonal assay for DnaK modulator project, biophysical, isothermal titration calorimetry, full-length DnaK (AID 1495)
Cytochrome P450 2D6 = Cytochrome P450 2D6 (Homo sapiens, UniProt P10635); experiment: qHTS Assay for Inhibitors and Substrates of Cytochrome P450 2D6. [Related pubchem assays: 410 ]; assay type: ADME; conditions: read-out: Potency
[30] = A Cell Based Secondary Assay To Explore Cytotoxicity of Compounds that Sensitize Mycobacterium Tuberculosis to Beta-Lactam Antibiotics.; assay type: functional
Estrogen receptor = target: T5, Estrogen receptor (Homo sapiens, UniProt P03372);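 further: potency for inhibiting coactivator peptide recruitment to the receptor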
T5 sequence (P03372 whole entry): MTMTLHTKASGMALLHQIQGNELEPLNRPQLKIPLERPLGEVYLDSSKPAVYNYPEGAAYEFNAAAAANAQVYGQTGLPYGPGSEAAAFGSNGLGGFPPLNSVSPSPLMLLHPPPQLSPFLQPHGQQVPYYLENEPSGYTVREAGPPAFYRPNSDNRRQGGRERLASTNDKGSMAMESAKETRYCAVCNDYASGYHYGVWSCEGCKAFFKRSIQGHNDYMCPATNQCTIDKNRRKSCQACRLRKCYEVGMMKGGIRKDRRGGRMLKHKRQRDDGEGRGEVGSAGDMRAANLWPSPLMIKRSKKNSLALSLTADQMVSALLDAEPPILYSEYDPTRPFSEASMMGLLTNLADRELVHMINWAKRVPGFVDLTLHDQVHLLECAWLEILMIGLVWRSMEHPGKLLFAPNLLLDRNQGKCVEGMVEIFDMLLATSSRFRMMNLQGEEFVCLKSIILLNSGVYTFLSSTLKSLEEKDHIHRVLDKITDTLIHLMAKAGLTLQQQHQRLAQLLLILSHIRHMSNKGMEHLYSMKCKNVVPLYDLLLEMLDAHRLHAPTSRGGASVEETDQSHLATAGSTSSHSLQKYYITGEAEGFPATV

COC(=O)c1ccccc1NC(=S)NC(=O)c1ccccc1C
IC50 [1]: > 50 µM (not active) | IC50 [2]: > 50 µM (not active)

O=C(COc1ccc(C(=O)c2ccc(F)cc2)cc1)NCc1ccc(F)cc1
EC50 [3]: > 49.7 µM (not active) | EC50 (Wee1-like protein kinase): > 49.7 µM (not active)

c1ccc(CN2CCC(Nc3nc(-c4ccccc4)nc4ccccc34)CC2)cc1
CC50 [4]: 20.3 µM (active) | EC50 [5]: 12.3 µM (active) | EC50 [6]: 9.69 µM (active) | AC50 [7]: 5.72 µM (active) | EC50 [8]: 19.6 µM (active)

CCC(C(=O)Nc1cccc(C(=O)O)c1C)c1ccccc1 (centres undefined)
EC50 [9]: > 55.7 µM (not active) | EC50 [10]: > 55.7 µM (not active)

O=C(Nc1ccc2c(c1)OCO2)C(c1ccccc1)N1CCCCC1 (centres undefined)
IC50 (Staphylococcus aureus): 1.26 µM (active)

O=C1C=CC(=O)C(C2=C3C(=O)N(CCc4ccccc4)CC(=O)N3CCC2)=C1
EC50 [11]: 45.9 µM (active) | EC50 [12]: 14.9 µM (inconclusive) | IC50 [13]: 4.75 µM (not active) | IC50 [14]: > 100 µM (inactive) | IC50 [15]: 5.72 µM (active) | IC50 (Perilipin-1/ABHD5): 4.37 µM (active) | IC50 (Beta-galactosidase): > 66.6 µM (inactive) | IC50 [16]: 8.15 µM (active) | IC50 (Hexokinase HKDC1): 3.73 µM (active)

O=C(Nc1ccc2c(c1)C1C=CCC1C(C(=O)O)N2)c1ccc(Cl)cc1Cl (centres undefined)
IC50 [17]: > 100 µM (not active) | IC50 [18]: > 100 µM (not active) | IC50 [19]: > 100 µM (not active)

CC(C)C(OC(=O)c1ccco1)C(=O)NCc1ccco1 (centres undefined)
IC50 [20]: 58 µM (active) | IC50 [21]: > 100 µM (inactive)

O=Cc1cn(Cc2ccc(F)cc2)c2ccccc12
EC50 [22]: 7.56 µM (active) | EC50 [23]: 1.85 µM (active) | EC50 (cells): 1.05 µM (active) | EC50 [24]: < 0.1 µM (active) | EC50 [25]: > 12 µM (inconclusive)

Cc1cccc(-n2c(=S)[nH]c3c(oc4ccccc43)c2=O)c1
IC50 [26]: 5.11 µM (active) | IC50 [27]: > 100 µM (inactive) | IC50 [28]: > 100 µM (not active) | IC50 [29]: 6.64 µM (active)

O=C(NCc1cc(Cl)cc(Cl)c1)c1cccs1
Kd (Chaperone protein dnaK): 2.8 µM (active)

CCN1CCC[C@@H]1CNC(=O)c1cc(S(N)(=O)=O)ccc1OC
AC50 (Cytochrome P450 2D6): 39.8 µM (inconclusive)

COC(=O)/C(=C\Nc1ccc(Cl)c2ccccc12)c1ncc(C(F)(F)F)cc1Cl
CC50 [30]: > 40 µM (active) | IC50 (Estrogen receptor): > 50 µM (not active)

Reference: ChEMBL document CHEMBL1201862, “PubChem BioAssay data set” (2004)
